Values of other authors, collected in patent US20050182074A1 (Pfizer Inc., priority 2004, published 2005).

Columns and labels:
[1] = AIDS patient on antiretroviral drugs, voriconazole added
[2] = steady state pharmacokinetics of voriconazole

plasma concentration on addition of voriconazole [1] | effect on voriconazole exposure [2] | Compound
elevated plasma concentrations | – | CC(C)CN(C[C@@H](O)[C@H](Cc1ccccc1)NC(=O)O[C@H]1CCOC1)S(=O)(=O)c1ccc(N)cc1 [amprenavir]
elevated plasma concentrations | – | Cc1ccnc2c1NC(=O)c1cccnc1N2C1CC1 [nevirapine]
– | no clinically relevant effect | COc1ccc2[nH]c([S+]([O-])Cc3ncc(C)c(OC)c3C)nc2c1 (stereo not drawn) [omeprazole]
